# Results as given in BindingDB's records for doi:10.1038/305140a0 (College of France, 1983).
# Several values for one entry are separate records, joined by “and”; a condition that tells them apart may be missing. Identical values can stand only once.
# Target: T1, 5-hydroxytryptamine receptor 1A (Rattus norvegicus, UniProt P19327)
# T1 sequence (P19327 whole entry): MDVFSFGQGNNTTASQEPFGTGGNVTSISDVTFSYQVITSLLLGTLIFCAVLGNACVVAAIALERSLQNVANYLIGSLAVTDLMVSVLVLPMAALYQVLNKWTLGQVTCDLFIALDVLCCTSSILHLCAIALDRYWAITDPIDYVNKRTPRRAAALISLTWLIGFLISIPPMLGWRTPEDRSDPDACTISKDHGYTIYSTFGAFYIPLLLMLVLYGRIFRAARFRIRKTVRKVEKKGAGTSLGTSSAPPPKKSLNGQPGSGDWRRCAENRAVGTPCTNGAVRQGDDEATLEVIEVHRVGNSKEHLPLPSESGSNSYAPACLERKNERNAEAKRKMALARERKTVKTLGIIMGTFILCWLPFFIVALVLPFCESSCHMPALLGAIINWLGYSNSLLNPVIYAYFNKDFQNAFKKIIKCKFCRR
row,SMILES,Ki
1,CN(C)CCCN1c2ccccc2CCc2ccccc21,> 10 µM
2,NCCc1ccc(O)c(O)c1,> 10 µM
3,CN1C2CCC1CC(OC(c1ccccc1)c1ccccc1)C2 (stereo not given),> 10 µM
4,NCCc1c[nH]c2ccccc12 [1H-indole-3-ethanamine],3.72 µM and > 10 µM
5,COc1ccc2[nH]cc(CCN(C)C)c2c1 [3-(2-DIMETHYLAMINOETHYL)-5-METHOXYINDOLE],0.0398 µM and 0.288 µM
6,"O=C(c1ccc(F)cc1)C1CCN(CCn2c(=O)[nH]c3ccccc3c2=O)CC1 [3-(2-{4-[(4-fluorophenyl)carbonyl]piperidin-1-yl}ethyl)-1,2,3,4-tetrahydroquinazoline-2,4-dione]",4.17 µM and > 10 µM
7,CN(C)CCCSc1ccccc1NC(=O)/C=C/c1ccccc1 [CINANSERIN],1.1 µM and > 10 µM
8,CN1C[C@H](CNC(=O)OCc2ccccc2)C[C@@H]2c3cccc4c3c(cn4C)C[C@H]21 [METERGOLINE],0.0347 µM and 0.245 µM
9,"CC(CN1c2ccccc2Sc2ccccc21)N(C)C (stereo not drawn) [N,N,alpha-trimethyl-10H-phenothiazine-10-ethanamine]",> 10 µM
10,CN1CCC(=C2c3ccccc3CCc3sccc32)CC1 [NSC_27400],2.19 µM and 6.17 µM
